From patent publication US20040132643A1 (priority 2004, published 2004)

Legend:
[1] = system: FTC 133 cells; details: 1 ng/ml FR901228 for 72 hours
Method: (§1) FTC 133 and FTC 236 cells were derived from cultures obtained from the primary tumor (FTC 133) and a nodal metastasis (FTC 236) of a human follicular thyroid carcinoma. […] Anaplastic thyroid carcinoma lines SW-1736 and KAT-4 were derived from primary cultures of human anaplastic thyroid carcinoma tumors.
(§2) Each of these four cell lines was exposed to varying concentrations of FR901228 (0.01 ng/ml, 0.1 ng/ml, 1 ng/ml, 10 ng/ml) for 72 hours, following which cell viability was determined using the 3-[4,5-dimethylthiazol-2-yl]-2,5-diphenyl tetrazoliumbromide (MTT) assay, as described in Mosmann, J Immunol Methods 65:55-63, 1983, and Den Boer et al., Br. J. Haem. 105: 876-882, 2000. The MTT assay is a colorimetric assay of the loss of mitochondrial metabolic activity associated with cell death.

[2] = system: FTC 236 cells; details: 1 ng/ml FR901228 for 72 hours
Method: as §1, §2

[3] = system: KAT-4 cells; details: 1 ng/ml FR901228 for 72 hours
Method: as §1, §2

[4] = system: SW-1736 cells; details: 1 ng/ml FR901228 for 72 hours
Method: as §1, §2

[5] = system: histone deacetylase; assay: Histone acetylation by immunofluorescence microscopy (anti-acetylated histone H3) in thyroid carcinoma cells; format: cell-based, human; details: 1 ng/ml FR901228 for 72 hours
Method: Histone acetylation was detected by immunofluorescence microscopy. In this experimental approach, fixed cells are exposed to a primary antibody that specifically binds to acetylated histones, and then exposed to an FITC-labeled secondary antibody that binds to the primary antibody.
FTC 236 and SW-1736 cells were cultured as described in Example 1, and treated for 72 hours with 1 ng/ml FR901228. Control FTC 236 and SW-1736 received no FR901228, but were otherwise treated identically to the FR901228-exposed cells. After 72 hours, each culture was treated with trypsin, harvested, and subjected to low speed centrifugation to form a cell pellet. Cells from each pellet were placed on microscope slides and fixed with 95% ethanol/5% acetic acid for one minute at room temperature. After fixation, slides were washed twice with phosphate buffered saline (PBS) for 15 minutes, treated with 8% bovine serum albumin in PBS for one hour at room temperature, and washed 15 minutes in PBS.
The fixed cells were then incubated overnight at 4° C. with 5 ug/ml anti-alpha acetylated histone H3 in 2% bovine serum albumin in PBS (antibody obtained from Upstate Biotechnology, Lake Placid N.Y.). Subsequently, cells were washed twice with PBS for five minutes at room temperature and then incubated with horse anti-rabbit FITC-conjugated secondary antibody (from Vector Labs, Burlingame Calif.). […]

[6] = system: TG promoter-enhancer element; assay: TG-luciferase reporter assay in transfected thyroid carcinoma cells; format: cell-based, human; details: 1 ng/ml FR901228; for enhancement in luciferase activity over that observed in untreated cells / enhancement over RLU observed in untreated cells: TG-luc
[7] = system: thymidine kinase (TK) promoter enhancer; assay: TK-luciferase reporter assay (positive control) in transfected thyroid carcinoma cells; format: cell-based, human; details: 1 ng/ml FR901228
From the text: As a positive control, FTC 236 and SW-1736 cells were transfected with a reporter plasmid encoding luciferase operably linked to the thymidine kinase (TK) promoter enhancer. The TK promoter enhancer is a constitutively active promoter element, meaning that it is not thyroid-specific and is fully active in all cell types.
For transfection, FTC 236 and SW-1736 cells were exposed to a transfection mixture of 0.5 micrograms of plasmid DNA, 4.5 microliters TransFast transfection reagent (Promega, Madison Wis.) and 200 microliters of RPMI medium. Plasmid DNA was either a TG-luciferase (TG-luc) construct or a TK-luciferase (TK-luc) construct. All transfections were performed in triplicate.
After incubating cells for one hour with the transfection mixture, cells were cultured in the presence or absence of 1 ng/ml FR901228 for two days. Cells were then harvested and lysed, and an extract of cellular protein was obtained. Total protein concentration in the extract was determined using the Bio-Rad protein assay system (Bio-Rad, Richmond Calif.). Luciferase activity was determined using the Luciferase Assay System (Promega, Madison Wis.), and was normalized to total protein concentration. […]

[8] = system: thyroglobulin; assay: RT PCR and northern blot analysis of thyroglobulin expression in thyroid carcinoma cells; format: cell-based, human
Method: (§3) RT PCR and Northern blot analysis are described in detail in a number of standard molecular biology reference works, for example Ausubel et al., Short Protocols in Molecular Biology, John Wiley & Sons, 1998.
(§4) Total RNA was extracted from FR901228-treated and untreated thyroid carcinoma cells using RNA STAT-60 (Tel-Test, Inc.), at 24 hours, 48 hours, and 72 hours following addition of FR901228-containing or control solution to the cell cultures. RNA was also extracted from normal thyroid cells for purposes of comparison. The extracted RNA was used without further modification for northern blots. For RT PCR, the extracted RNA was reverse transcribed into cDNA using standard techniques.
Oligonucleotide primers used for PCR analysis of human thyroglobulin expression were: […]
Using these primers, the presence of human thyroglobulin cDNA template is reflected by a 219 bp PCR product.

[9] = system: Na+/I- symporter; assay: RT PCR and northern blot analysis of Na+/I- symporter expression in thyroid carcinoma cells; format: cell-based, human
Method: as §3, §4
Oligonucleotide primers used for PCR analysis of human Na^+/I^− symporter expression were:
Using these primers, the presence of human Na^+/I^− symporter cDNA template is reflected by a 303 bp PCR product.

[10] = system: Na+/I- symporter; assay: 125I iodine accumulation study in thyroid carcinoma cells; format: cell-based, human
Method: To evaluate the function of the Na^+/I^− symporter, iodine accumulation studies were performed. FTC 133, FTC 236 SW-1736 and KAT-4 cells were treated with 1 ng/ml FR901228 for two or three days, or left untreated. Cells were then incubated in 0.5 ml of Hanks' Balanced Salt Solution (HBSS; Life Technologies, Inc., Eggenstein, Germany) containing approximately 2 μCi carrier-free Na^125I (DuPont NEN, Boston, Mass.) and 30 μM NaI] ^125I for 10 minutes. For perchlorate studies NaCIO4 was added as a 100X solution in HBSS, to a final concentration of 30 and 100 μM, immediately after the addition of radiolabeled iodine. Excess radiolabeled iodine was then removed, and the amount of ^125I accumulated in the cells was determined by gamma counting.

[11] = ATC cells, 72 hours of FR901228 exposure
[12] = FTC cells, 72 hours of FR901228
[13] = FTC cells, RT PCR and northern blot

C/C=C1\NC(=O)[C@H]2CSSCC/C=C/[C@H](CC(=O)N[C@H](C(C)C)C(=O)N2)OC(=O)[C@H](C(C)C)NC1=O [FR901228]
cytotoxicity (cell viability, MTT assay) [1]: not significantly cytotoxic | cytotoxicity (cell viability, MTT assay) [2]: not significantly cytotoxic | cytotoxicity (cell viability, MTT assay) [3]: not significantly cytotoxic | cytotoxicity (cell viability, MTT assay) [4]: not significantly cytotoxic | histone acetylation (nuclear fluorescence) relative to the control cells ([5]; FTC 236 cells): marked increase | histone acetylation (nuclear fluorescence) relative to the control cells ([5]; SW-1736 cells): marked increase | relative luciferase units (RLU) in TG-luc transfected cells, TK luc = 100% ([6]; FTC 133 cells): about 1000% | enhancement in luciferase activity over that observed in untreated cells ([6]; FTC 133 cells): greater than tenfold | relative luciferase units (RLU) in TG-luc transfected cells, TK luc = 100% ([6]; FTC 236 cells): about 1000% | enhancement in luciferase activity over that observed in untreated cells ([6]; FTC 236 cells): greater than tenfold | relative luciferase units (RLU) in TG-luc transfected cells, TK luc = 100% ([6]; KAT-4 cells): 400-500% | enhancement over RLU observed in untreated cells ([6]; KAT-4 cells): greater than ten-fold | relative luciferase units (RLU) in TG-luc transfected cells, TK luc = 100% ([6]; SW-1736 cells): 400-500% | enhancement over RLU observed in untreated cells ([6]; SW-1736 cells): greater than ten-fold | effect on luciferase activity in TK luc-transfected cells [7]: no effect | time after FR901228 at which increased TG expression was first observed ([8]; ATC cells): 48 h | TG expression after 72 hours [8, 11]: further increases | TG expression after 72 hours [8, 12]: further increases | time following addition of FR901228 at which increased TG expression was detected [8, 13]: ≤ 24 h | time after FR901228 at which increased Na+/I- symporter expression was first observed ([9]; ATC cells): 48 h | Na+/I- symporter expression after 72 hours [9, 11]: further increases | Na+/I- symporter expression after 72 hours [9, 12]: further increases | time following addition of FR901228 at which increased Na+/I- symporter expression was detected [9, 13]: ≤ 24 h | iodine (125I) accumulation ([10]; four cell lines (FTC 133, FTC 236, SW-1736, KAT-4), 1 ng/ml FR901228, two and three days): Marked increases

[O-][Cl+3]([O-])([O-])O [sodium perchlorate]
inhibition of iodine (125I) accumulation ([10]; FR901228-treated thyroid carcinoma cells, perchlorate 30 and 100 μM): inhibited in a dose-dependent manner
